Measured values published in patent publication US20260191835A1, “COMBINATIONS COMPRISING A MENIN-MLL INHIBITOR AND AT LEAST ONE OTHER THERAPEUTIC AGENT” (JANSSEN PHARMACEUTICA NV, priority 2022, published 2026).

System: MV4-11 cells
Assay: In vitro proliferation (Cell Titer Glo, 6 days) of Compound 51 in combination with gilteritinib, midostaurin or decitabine, MV4-11
Format: cell-based
Design: key to Synergy/antagonism call (maxR test), MV4-11 Cell Proliferation: synergy is indicated by “**”; antagonism is indicated by “*”; no asterisk: absence of any asterisk indicates an additive effect
Experimental: 3) In Vitro Proliferation—Menin-MLL Inhibitor in Combination with FLT3 Inhibitor (Gilteritinib or Midostaurin), DNA Intercalating Agent (Idarubicin) or Hypomethylating Agent (Decitabine)
The effect of Compound 51 in combination with gilteritinib, midostaurin, idarubicin or decitabine was determined in proliferation assays.
AML cell lines MOLM-13, OCI-AML3 and MV4-11 were purchased from DSMZ. MOLM-13 were grown in RPMI medium supplemented with 10% Fetal Bovine Serum (FBS) and 1% penicillin/streptomycin. MV4-11 cells were grown in IMDM medium supplemented with 10% FBS and 1% penicillin/streptomycin. OCI-AML3 cells were cultured in 80-90% alpha-MEM (with or without ribo- and deoxyribonucleosides)+10-20% FBS. All cell lines were cultured at 37° C. in 5% CO2 atmosphere.
AML cell lines (10-20×10^3 cells/well) were seeded in 96-well plates and grown for 6 days in serum (10%)-containing medium in the presence or absence of inhibitors at the indicated concentrations. Proliferation was analyzed by means of a Cell Titer Glo assay using the […] (Promega, Madison, WI, USA), according to the manufacturer's instructions. Data are mean with standard deviation from two to four independent experiments in technical triplicates.
R-based Biochemically Intuitive Generalized Loewe (BIGL) model implemented with a highest single agent (HSA) null model. Specifically, the BIGL methodology was applied to calculate drug-drug interactions (Van der Borght, K., Tourny, A., Bagdziunas, R. et al. BIGL: Biochemically Intuitive Generalized Loewe null model for prediction of the expected combined effect compatible with partial agonism and antagonism. Sci Rep 7, 17935 (2017); Thas, O., Tourny, A., Verbist, B., Hawinkel, S., Nazarov, M., Mutambanengwe, K., & Bijnens, L. Statistical detection of synergy: New methods and a comparative study. Pharmaceutical Statistics (2021)).
Synergy matrix results of the BIGL analysis of the cell line data with HSA as mean model calculated on the basis of the cellular metabolic activity using Cell Titer-Glo assay. Bootstrap confidence intervals are indicated. Effect sizes and their confidence intervals are shown. […] No significant average effect if zero is included in the interval.

[1] = Compound 51 0.01 μm + Decitabine 0.0015 μM
[2] = Compound 51 0.01 μm + Decitabine 0.035 μM
[3] = Compound 51 0.01 μm + Decitabine 0.15 μM
[4] = Compound 51 0.01 μm + Gilteritinib 0.0005 μM
[5] = Compound 51 0.05 μm + Decitabine 0.15 μM
[6] = Compound 51 0.05 μm + Decitabine 1.5 μM
[7] = Compound 51 0.05 μm + Gilteritinib 0.0005 μM

CC(=O)N1CCC(CN2CC[C@@H](Cc3cn(-c4ccc(F)cc4C(=O)N(C)C(C)C)c4cncc(C)c34)C2)CC1 [Compound 51]
Effect size (BIGL, HSA null model), MV4-11 Cell Proliferation (Compound 51 0.0001 μm + Midostaurin 0.0012 μM): −0.03 | Effect size (BIGL, HSA null model), MV4-11 Cell Proliferation (Compound 51 0.0001 μm + Midostaurin 0.006 μM): 0.13 | Effect size (BIGL, HSA null model), MV4-11 Cell Proliferation (Compound 51 0.0001 μm + Midostaurin 0.025 μM): 0.02 | Effect size (BIGL, HSA null model), MV4-11 Cell Proliferation (Compound 51 0.0001 μm + Midostaurin 0.05 μM): −0.05 | Effect size (BIGL, HSA null model), MV4-11 Cell Proliferation (Compound 51 0.0001 μm + Midostaurin 0.1 μM): −0.02 | Effect size (BIGL, HSA null model), MV4-11 Cell Proliferation (Compound 51 0.0001 μm + Midostaurin 0.5 μM): 0.03 | Effect size (BIGL, HSA null model), MV4-11 Cell Proliferation (Compound 51 0.001 μm + Decitabine 0.0015 μM): −0.01 | Effect size (BIGL, HSA null model), MV4-11 Cell Proliferation (Compound 51 0.001 μm + Decitabine 0.035 μM): −0.03 | Effect size (BIGL, HSA null model), MV4-11 Cell Proliferation (Compound 51 0.001 μm + Decitabine 0.15 μM): 0 | Effect size (BIGL, HSA null model), MV4-11 Cell Proliferation (Compound 51 0.001 μm + Decitabine 1.5 μM): −0.05 | Effect size (BIGL, HSA null model), MV4-11 Cell Proliferation (Compound 51 0.001 μm + Decitabine 3 μM): −0.04 | Effect size (BIGL, HSA null model), MV4-11 Cell Proliferation (Compound 51 0.001 μm + Gilteritinib 0.0005 μM): −0.03 | Effect size (BIGL, HSA null model), MV4-11 Cell Proliferation (Compound 51 0.001 μm + Gilteritinib 0.005 μM): −0.01 | Effect size (BIGL, HSA null model), MV4-11 Cell Proliferation (Compound 51 0.001 μm + Gilteritinib 0.01 μM): −0.03 | Effect size (BIGL, HSA null model), MV4-11 Cell Proliferation (Compound 51 0.001 μm + Gilteritinib 0.05 μM): −0.01 | Effect size (BIGL, HSA null model), MV4-11 Cell Proliferation (Compound 51 0.001 μm + Gilteritinib 0.3 μM): −0.01 | Effect size (BIGL, HSA null model), MV4-11 Cell Proliferation (Compound 51 0.001 μm + Gilteritinib 1 μM): −0.01 | Effect size (BIGL, HSA null model), MV4-11 Cell Proliferation (Compound 51 0.001 μm + Midostaurin 0.0012 μM): −0.02 | Effect size (BIGL, HSA null model), MV4-11 Cell Proliferation (Compound 51 0.001 μm + Midostaurin 0.006 μM): −0.01 | Effect size (BIGL, HSA null model), MV4-11 Cell Proliferation (Compound 51 0.001 μm + Midostaurin 0.025 μM): 0.05 | Effect size (BIGL, HSA null model), MV4-11 Cell Proliferation (Compound 51 0.001 μm + Midostaurin 0.05 μM): 0.07 | Effect size (BIGL, HSA null model), MV4-11 Cell Proliferation (Compound 51 0.001 μm + Midostaurin 0.1 μM): −0.03 | Effect size (BIGL, HSA null model), MV4-11 Cell Proliferation (Compound 51 0.001 μm + Midostaurin 0.5 μM): 0.03 | Effect size (BIGL, HSA null model), MV4-11 Cell Proliferation [1]: −0.1 | Synergy/antagonism call (maxR test), MV4-11 Cell Proliferation [1]: ** | Effect size (BIGL, HSA null model), MV4-11 Cell Proliferation [2]: −0.11 | Synergy/antagonism call (maxR test), MV4-11 Cell Proliferation [2]: ** | Effect size (BIGL, HSA null model), MV4-11 Cell Proliferation [3]: −0.23 | Synergy/antagonism call (maxR test), MV4-11 Cell Proliferation [3]: ** | Effect size (BIGL, HSA null model), MV4-11 Cell Proliferation (Compound 51 0.01 μm + Decitabine 1.5 μM): 0.01 | Effect size (BIGL, HSA null model), MV4-11 Cell Proliferation (Compound 51 0.01 μm + Decitabine 3 μM): −0.05 | Effect size (BIGL, HSA null model), MV4-11 Cell Proliferation [4]: −0.36 | Synergy/antagonism call (maxR test), MV4-11 Cell Proliferation [4]: ** | Effect size (BIGL, HSA null model), MV4-11 Cell Proliferation (Compound 51 0.01 μm + Gilteritinib 0.005 μM): −0.02 | Effect size (BIGL, HSA null model), MV4-11 Cell Proliferation (Compound 51 0.01 μm + Gilteritinib 0.01 μM): −0.02 | Effect size (BIGL, HSA null model), MV4-11 Cell Proliferation (Compound 51 0.01 μm + Gilteritinib 0.05 μM): −0.02 | Effect size (BIGL, HSA null model), MV4-11 Cell Proliferation (Compound 51 0.01 μm + Gilteritinib 0.3 μM): −0.02 | Effect size (BIGL, HSA null model), MV4-11 Cell Proliferation (Compound 51 0.01 μm + Gilteritinib 1 μM): −0.02 | Effect size (BIGL, HSA null model), MV4-11 Cell Proliferation (Compound 51 0.01 μm + Midostaurin 0.0012 μM): −0.06 | Effect size (BIGL, HSA null model), MV4-11 Cell Proliferation (Compound 51 0.01 μm + Midostaurin 0.006 μM): −0.13 | Effect size (BIGL, HSA null model), MV4-11 Cell Proliferation (Compound 51 0.01 μm + Midostaurin 0.025 μM): −0.14 | Effect size (BIGL, HSA null model), MV4-11 Cell Proliferation (Compound 51 0.01 μm + Midostaurin 0.05 μM): −0.11 | Effect size (BIGL, HSA null model), MV4-11 Cell Proliferation (Compound 51 0.01 μm + Midostaurin 0.1 μM): −0.04 | Effect size (BIGL, HSA null model), MV4-11 Cell Proliferation (Compound 51 0.01 μm + Midostaurin 0.5 μM): 0.03 | Effect size (BIGL, HSA null model), MV4-11 Cell Proliferation (Compound 51 0.05 μm + Decitabine 0.0015 μM): 0.02 | Effect size (BIGL, HSA null model), MV4-11 Cell Proliferation (Compound 51 0.05 μm + Decitabine 0.035 μM): −0.07 | Effect size (BIGL, HSA null model), MV4-11 Cell Proliferation [5]: −0.23 | Synergy/antagonism call (maxR test), MV4-11 Cell Proliferation [5]: ** | Effect size (BIGL, HSA null model), MV4-11 Cell Proliferation [6]: −0.11 | Synergy/antagonism call (maxR test), MV4-11 Cell Proliferation [6]: ** | Effect size (BIGL, HSA null model), MV4-11 Cell Proliferation (Compound 51 0.05 μm + Decitabine 3 μM): −0.06 | Effect size (BIGL, HSA null model), MV4-11 Cell Proliferation [7]: −0.18 | Synergy/antagonism call (maxR test), MV4-11 Cell Proliferation [7]: ** | Effect size (BIGL, HSA null model), MV4-11 Cell Proliferation (Compound 51 0.05 μm + Gilteritinib 0.005 μM): −0.03 | Effect size (BIGL, HSA null model), MV4-11 Cell Proliferation (Compound 51 0.05 μm + Gilteritinib 0.01 μM): −0.02 | Effect size (BIGL, HSA null model), MV4-11 Cell Proliferation (Compound 51 0.05 μm + Gilteritinib 0.05 μM): −0.02
